In article PMC2993768 (Journal of natural products, 2010):

Key:
[1] = test system: other serotonin receptors; assay: PDSP primary binding assay at 10 μM, other serotonin receptors; parameters: species or system human; settings: from Ki at 5-HT2B vs no significant binding at 10 μM
[2] = test system: mouse dorsal root ganglion (DRG) neurons; settings: purified compounds, 20 μg / mL, K+-stimulated
[3] = micromolar range; cited from earlier work

SMILES | selectivity for 5-HT2B over related receptors [1] | effect on Ca2+ influx in DRG cells [2] | antihypotensive activity [3]
C[C@@H]1SC(c2ccccc2O)=N[C@@H]1CO [Compound 6, Pulicatin A] | at least 20 fold | decreased Ca^2+ influx | –
OC[C@@H]1CSC(c2ccccc2O)=N1 [Compound 1, aerugine] | – | observably increased Ca^2+ influx | –
NC(=O)C1CSC(c2ccccc2O)=N1 (centres unmarked) [Compound 3, pulicatin G] | – | observably increased Ca^2+ influx | –
O=C(O)c1csc(-c2ccccc2O)n1 [Aeruginoic acid] | – | – | exhibited antihypotensive activity
